Target: T1, GR LBD (ligand binding domain) (Homo sapiens, UniProt P04150)
T1 construct: expressed in transfected cells; host or cells: HEK293
T1 sequence (P04150 524-758 limits assumed): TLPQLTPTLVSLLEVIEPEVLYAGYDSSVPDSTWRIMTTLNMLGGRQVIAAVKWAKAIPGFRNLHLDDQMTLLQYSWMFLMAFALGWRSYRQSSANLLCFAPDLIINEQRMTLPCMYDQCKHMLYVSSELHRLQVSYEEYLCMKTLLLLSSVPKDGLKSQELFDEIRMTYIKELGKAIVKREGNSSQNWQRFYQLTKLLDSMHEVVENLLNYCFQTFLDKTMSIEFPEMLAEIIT
Assay: GR Reporter Assay (pBind assay, pG5luc luciferase reporter, agonist mode)
Type: cell-based
Conditions: HEK293 cells transiently transfected with pG5luc and GR LBD
Description: The assay is a pBind assay following the general principle outlined below. 2×10^4 HEK293 cells/96-well are transiently transfected with pG5luc and GR LBD 1:1 at 50 ng/well. GR LBD (ligand binding domain) is a […] fusion protein (used to yeast GAL4) and upon binding to the test article will bind the luciferase reporter and activate transcription of luciferase. Upon addition of a substrate, the luciferase activity can be measured and corresponds to the activity of the test article. The assay is performed in agonist mode.

Structure (SMILES): C[C@@H]1C[C@H]2[C@@H]3C[C@H](F)C4=CC(=O)C=C[C@]4(C)[C@@]3(F)[C@@H](O)C[C@]2(C)[C@@]1(OC(=O)c1cccc(N)c1)C(=O)N1CC(CO)C1 [Compound 17]
- EC50: > 30 nM

Structure (SMILES): CNC(=O)[C@@]1(OC(=O)c2cccc(N)c2)[C@H](C)C[C@H]2[C@@H]3C[C@H](F)C4=CC(=O)C=C[C@]4(C)[C@@]3(F)[C@@H](O)C[C@@]21C [Compound 10]
- EC50: > 30 nM

Structure (SMILES): CN(C)C(=O)[C@@]12O[C@H](c3cccc(Cc4cccc(N)c4)c3)O[C@@H]1C[C@H]1[C@@H]3CCC4=CC(=O)C=C[C@]4(C)[C@H]3[C@@H](O)C[C@@]12C [Compound 23]
- EC50: < 5 nM

Structure (SMILES): C[C@@H]1C[C@H]2[C@@H]3C[C@H](F)C4=CC(=O)C=C[C@]4(C)[C@@]3(F)[C@@H](O)C[C@]2(C)[C@@]1(OC(=O)c1cccc(N)c1)C(=O)N1CCOCC1 [Compound 15]
- EC50: > 30 nM

Structure (SMILES): C[C@@H]1C[C@H]2[C@@H]3C[C@H](F)C4=CC(=O)C=C[C@]4(C)[C@@]3(F)[C@@H](O)C[C@]2(C)[C@@]1(OC(=O)c1cccc(N)c1)C(=O)N(C)CCO [Compound 18]
- EC50: > 30 nM

Structure (SMILES): C[C@@H]1C[C@H]2[C@@H]3C[C@H](F)C4=CC(=O)C=C[C@]4(C)[C@@]3(F)[C@@H](O)C[C@]2(C)[C@@]1(OC(=O)c1cccc(N)c1)C(=O)N(C)C [Compound 8]
- EC50: < 5 nM

Structure (SMILES): C[C@@H]1C[C@H]2[C@@H]3C[C@H](F)C4=CC(=O)C=C[C@]4(C)[C@@]3(F)[C@@H](O)C[C@]2(C)[C@@]1(OC(=O)c1cccc(N)c1)C(=O)NCCO [Compound 19]
- EC50: > 30 nM

Structure (SMILES): C[C@]12C=CC(=O)C=C1CC[C@H]1[C@@H]3C[C@H]4O[C@@H](c5cccc(N)c5)O[C@@]4(C(=O)CF)[C@@]3(C)C[C@H](O)[C@@]12F [Compound 3]
- EC50: < 5 nM

Structure (SMILES): C[C@@H]1C[C@H]2[C@@H]3CCC4=CC(=O)C=C[C@]4(C)[C@@]3(F)[C@@H](O)C[C@]2(C)[C@@]1(OC(=O)c1cccc(N)c1)C(=O)N(C)C [Compound 12]
- EC50: < 5 nM

Structure (SMILES): C[C@]12C=CC(=O)C=C1CC[C@@H]1[C@@H]2[C@@H](O)C[C@@]2(C)[C@H]1C[C@H]1O[C@@H](c3ccc(Cc4cccc(N)c4)cc3)O[C@]12C(=O)CF [Compound 25]
- EC50: < 5 nM

Structure (SMILES): C[C@]12C=CC(=O)C=C1CC[C@H]1[C@@H]3C[C@H]4O[C@H](c5cccc(N)c5)O[C@@]4(C(=O)CCl)[C@@]3(C)C[C@H](O)[C@@]12F [Compound 1]
- EC50: < 5 nM

Structure (SMILES): C[C@@H]1C[C@H]2[C@@H]3C[C@H](F)C4=CC(=O)C=C[C@]4(C)[C@@]3(F)[C@@H](O)C[C@]2(C)[C@@]1(OC(=O)c1ccco1)C(=O)NCCOc1ccc(N)cc1 [Compound 7]
- EC50: < 5 nM

Structure (SMILES): C[C@]12C=CC(=O)C=C1CC[C@H]1[C@@H]3C[C@H]4O[C@@H](c5cccc(N)c5)O[C@@]4(C(=O)CCl)[C@@]3(C)C[C@H](O)[C@@]12F [Compound 2]
- EC50: < 5 nM

Structure (SMILES): C[C@@H]1C[C@H]2[C@@H]3C[C@H](F)C4=CC(=O)C=C[C@]4(C)[C@@]3(F)[C@@H](O)C[C@]2(C)[C@@]1(OC(=O)c1ccc(N)cc1)C(=O)N(C)C [Compound 9]
- EC50: < 5 nM

Structure (SMILES): CNC(=O)[C@@]1(OC(=O)c2ccc(N)cc2)[C@H](C)C[C@H]2[C@@H]3C[C@H](F)C4=CC(=O)C=C[C@]4(C)[C@@]3(F)[C@@H](O)C[C@@]21C [Compound 11]
- EC50: > 30 nM

Structure (SMILES): C[C@@H]1C[C@H]2[C@@H]3C[C@H](F)C4=CC(=O)C=C[C@]4(C)[C@@]3(F)[C@@H](O)C[C@]2(C)[C@@]1(OC(=O)c1cccc(N)c1)C(=O)N1CCCC1 [Compound 14]
- EC50: > 30 nM

Structure (SMILES): C[C@@H]1C[C@H]2[C@@H]3C[C@H](F)C4=CC(=O)C=C[C@]4(C)[C@@]3(F)[C@@H](O)C[C@]2(C)[C@@]1(OC(=O)c1cccc(N)c1)C(=O)N(C)CC(O)CO (stereo partly drawn) [Compound 20, (6S,8S,9R,10S,11S,13S,14S,16R,17R)-17-((2,3-dihydroxypropyl)(methyl)carbamoyl)-6,9-difluoro-11-hydroxy-10,13,16-trimethyl-3-oxo-6,7,8,9,10,11,12,13,14,15,16,17-dodecahydro-3H-cyclopenta[a]phenanthren-17-yl 3-aminobenzoate]
- EC50: > 30 nM

From patent publication US20260041781A1, “NOVEL GLUCOCORTICOID RECEPTOR AGONISTS AND IMMUNOCONJUGATES THEREOF” (priority 2022, published 2026)
